# In ChEMBL document CHEMBL1145400, “Synthesis and biological evaluation of 4(5)-(6-alkylpyridin-2-yl)imidazoles as transforming growth factor-beta type 1 receptor kinase inhibitors” (J Med Chem, 2007):
# How the values were obtained:
# TGF-beta receptor type-1 = molecular target: T1, TGF-beta receptor type-1 (Homo sapiens, UniProt P36897); experiment: Inhibition of human recombinant ALK5 phosphorylation expressed in Sf9 cells
# T1 sequence (P36897 whole entry): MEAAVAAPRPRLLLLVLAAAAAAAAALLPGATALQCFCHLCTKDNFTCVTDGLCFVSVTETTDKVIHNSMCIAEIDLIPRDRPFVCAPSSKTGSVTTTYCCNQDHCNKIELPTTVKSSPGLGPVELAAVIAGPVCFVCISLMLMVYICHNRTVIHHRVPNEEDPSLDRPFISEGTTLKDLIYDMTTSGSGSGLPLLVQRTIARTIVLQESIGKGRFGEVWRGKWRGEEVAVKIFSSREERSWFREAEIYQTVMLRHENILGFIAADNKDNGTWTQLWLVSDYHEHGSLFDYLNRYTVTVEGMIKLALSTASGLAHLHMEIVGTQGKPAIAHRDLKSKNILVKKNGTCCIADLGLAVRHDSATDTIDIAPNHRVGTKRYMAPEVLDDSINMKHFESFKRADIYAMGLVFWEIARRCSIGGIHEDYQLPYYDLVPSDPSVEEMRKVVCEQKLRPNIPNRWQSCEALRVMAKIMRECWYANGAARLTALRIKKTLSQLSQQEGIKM
# [1] = molecular target: T2, Serine/threonine-protein kinase D1 (Homo sapiens, UniProt Q15139); experiment: Inhibition of PKCmu
# T2 sequence (Q15139 whole entry): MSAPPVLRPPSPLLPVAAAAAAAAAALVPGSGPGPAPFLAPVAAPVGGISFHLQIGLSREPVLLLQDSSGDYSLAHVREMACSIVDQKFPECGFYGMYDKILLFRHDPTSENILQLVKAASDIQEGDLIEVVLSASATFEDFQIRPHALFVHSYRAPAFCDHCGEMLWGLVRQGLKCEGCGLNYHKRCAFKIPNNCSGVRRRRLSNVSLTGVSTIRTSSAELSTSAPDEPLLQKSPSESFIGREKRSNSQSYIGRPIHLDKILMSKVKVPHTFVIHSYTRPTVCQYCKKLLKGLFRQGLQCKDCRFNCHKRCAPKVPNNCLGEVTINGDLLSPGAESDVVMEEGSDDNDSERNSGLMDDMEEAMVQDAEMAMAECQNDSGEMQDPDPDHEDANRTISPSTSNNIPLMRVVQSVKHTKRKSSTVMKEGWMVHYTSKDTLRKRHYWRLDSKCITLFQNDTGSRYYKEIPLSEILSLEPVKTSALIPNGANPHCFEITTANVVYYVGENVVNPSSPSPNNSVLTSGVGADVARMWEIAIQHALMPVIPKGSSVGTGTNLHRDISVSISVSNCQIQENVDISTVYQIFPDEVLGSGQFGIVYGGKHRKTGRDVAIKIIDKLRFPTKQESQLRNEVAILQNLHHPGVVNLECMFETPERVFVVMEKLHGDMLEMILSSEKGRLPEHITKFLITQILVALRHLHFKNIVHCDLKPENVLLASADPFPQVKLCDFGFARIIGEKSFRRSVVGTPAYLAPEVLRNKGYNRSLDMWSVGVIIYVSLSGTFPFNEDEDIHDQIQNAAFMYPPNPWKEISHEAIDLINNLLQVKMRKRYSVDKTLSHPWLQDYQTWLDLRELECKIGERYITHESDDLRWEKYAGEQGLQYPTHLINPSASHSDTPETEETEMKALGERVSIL
# [2] = molecular target: Mitogen-activated protein kinase 14 (Homo sapiens, UniProt Q16539)
# Mitogen-activated protein kinase 14, sequence (Q16539 whole entry): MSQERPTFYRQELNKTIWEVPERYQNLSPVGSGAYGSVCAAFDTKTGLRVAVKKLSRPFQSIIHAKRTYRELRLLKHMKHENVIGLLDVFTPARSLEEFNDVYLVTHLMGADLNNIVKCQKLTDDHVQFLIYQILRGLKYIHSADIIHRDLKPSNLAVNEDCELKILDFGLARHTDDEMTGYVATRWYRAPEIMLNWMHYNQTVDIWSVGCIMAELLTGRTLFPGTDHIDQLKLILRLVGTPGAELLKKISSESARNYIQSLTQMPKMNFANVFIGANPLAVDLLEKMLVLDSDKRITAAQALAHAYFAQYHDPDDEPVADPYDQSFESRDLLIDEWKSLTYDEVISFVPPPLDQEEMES
SMILES,IC50 (TGF-beta receptor type-1) [nM],IC50 [1] [nM],IC50 [2] [nM]
Cc1cccc(-c2[nH]c(CNc3cccc(C#N)c3)nc2-c2ccc3nccnc3c2)n1,12,1000,1030
Cc1cccc(-c2nc(CNc3ccc(C(N)=O)cc3)[nH]c2-c2ccc3nccnc3c2)n1,75,,
Cc1cccc(-c2[nH]c(CNc3ccc(C#N)cc3)nc2-c2ccc3c(c2)OCO3)n1,174,,
CCc1cccc(-c2nc(CNc3cccc(C(N)=O)c3)[nH]c2-c2ccc3c(c2)OCO3)n1,46,,
Cc1cccc(-c2[nH]c(CNc3cccc(C#N)c3)nc2-c2ccc3c(c2)OCO3)n1,46,,
CCc1cccc(-c2[nH]c(CNc3ccc(C(N)=O)cc3)nc2-c2ccc3c(c2)OCO3)n1,385,,
Cc1cccc(-c2[nH]c(CNc3cccc(C(N)=O)c3)nc2-c2ccc3c(c2)OCO3)n1,21,,
Cc1cccc(-c2[nH]c(NCc3cccc(C#N)c3)nc2-c2ccc3c(c2)OCO3)n1,24,,
CCc1cccc(-c2nc(CNc3cccc(C#N)c3)[nH]c2-c2ccc3c(c2)OCO3)n1,73,,
Cc1cccc(-c2[nH]c(NCc3ccc(C#N)cc3)nc2-c2ccc3c(c2)OCO3)n1,153,,
Cc1cccc(-c2[nH]c(CNc3ccc(C(N)=O)cc3)nc2-c2ccc3c(c2)OCO3)n1,262,,
CCc1cccc(-c2[nH]c(CNc3ccc(C#N)cc3)nc2-c2ccc3nccnc3c2)n1,47,,

# Second part, led by results:
IC50 (TGF-beta receptor type-1) [nM],SMILES,IC50 [1] [nM],IC50 [2] [nM]
42,Cc1cccc(-c2[nH]c(CNc3ccc(C#N)cc3)nc2-c2ccc3nccnc3c2)n1,,
10,Cc1cccc(-c2nc(CNc3cccc(C(N)=O)c3)[nH]c2-c2ccc3nccnc3c2)n1,,
92,CCc1cccc(-c2nc(CNc3ccc(C(N)=O)cc3)[nH]c2-c2ccc3nccnc3c2)n1,,
119,CCc1cccc(-c2[nH]c(CNc3cccc(C#N)c3)nc2-c2ccc3nccnc3c2)n1,,
15,CCc1cccc(-c2[nH]c(CNc3cccc(C(N)=O)c3)nc2-c2ccc3nccnc3c2)n1,,
360,CCc1cccc(-c2[nH]c(CNc3ccc(C#N)cc3)nc2-c2ccc3c(c2)OCO3)n1,,
